# Key:
# Assay type in all cases: in vivo
# [1] = system: allodynia induced by sulprostone; test: Mouse sulprostone model of allodynia; settings: for attenuation of the allodynic response (analgesic activity): up to 1 mg/kg, 15 min before sulprostone 300 ng/kg IP, FIG. 3
# Protocol: In this alternative model of chronic pain, allodynia can be induced in mice through intraperitoneal treatment of the animals with 300 ng/kg sulprostone (prostaglandin E2 receptor agonist) in 50% DMSO and in a volume of 5 μl. In this model, the pain response to stroking the flank with a paint brush is scored 8 times over a 35 minute period starting 15 minutes following spinal administration of sulprostone. Minami et al., 57 Pain 217-223 (1994), hereby incorporated by reference herein. Sulprostone treatment alone elicits a score of 12-13 on a 16-point scale.
# In either model, the compounds are formulated in d-H2O and given in a volume of 1 ml/kg body weight for intraperitoneal (IP) dosing.
# Six mice per group are rendered allodynic by injection of one of the following agents: 300 ng/kg sulprostone in DMSO IP, 100 ng/kg phenylephrine (PE) in dH2O IP, or 100 ng NMDA in DMSO intrathecally (IT). Fifteen minutes before administration of the allodynia-inducing agents, the experimental mice are given 1 mg/kg NB-DNJ. Thirty (30) minutes following administration of NB-DNJ, the allodynic response is monitored as described by brushing the flank of each mouse with a paint brush.
# Five to six mice per group are rendered allodynic by injection of 300 ng/kg sulprostone IP. Fifteen minutes before inducement of an allodynic response, experimental mice are given one of the following: 1 mg/kg, 300 μg/kg, and 100 μg/kg NB-DNJ; 1 mg/kg N-butyldeoxymannojirimycin; 1 mg/kg N-5-carboxy-1-deoxynojirimycin; 1 mg/kg N-dodecyldeoxynojirimycin; 1 mg/kg N-ethyl-1-deoxynojirimycin; 1 mg/kg, 300 μg/kg, and 30 μg/kg D-glucaro-delta-lactam; 1 mg/kg 4-O-a-D-glucopyranosylmoranoline; 1 mg/kg nojirimycin bisulfite; 1 mg/kg nojirimycin-1-sulfonic acid; 1 mg/kg N-(n-nonyl)deoxynojirimycin; 1 mg/kg N(7-oxadecyl)deoxynojirimycin; and 1 mg/kg N-(7-oxa-9,9,9-trifluorononyl)deoxynojirimycin. The DMSO vehicle and sulprostone alone are used as controls.
# Starting thirty (30) minutes following administration of NB-DNJ, the allodynic response of each mouse was monitored by brushing the flank of the mouse with a paint brush.
# Five to six mice per group are rendered allodynic by injection of one of the following: 300 ng/kg sulprostone IP, 100 ng/kg phenylephrine (PE) IP, or 100 ng NMDA intrathecally (IT). Fifteen minutes prior to the induction of allodynia, the mice are given D-glucaro-delta-lactam IP at […], or 1 mg/kg. PE or NMDA-treated mice are given 1 mg/kg D-glucaro-delta-lactam IP.
# [2] = system: allodynia induced by phenylephrine (PE); test: Mouse phenylephrine (PE) model of allodynia
# Protocol: (§1) In variants of this model, allodynia can be induced using 100 ng N-methyl-D-aspartate (NMDA) in DMSO intrathecally, or IP phenylephrine (PE) 100 ng/kg formulated in dH2O. In either model, the compounds are formulated in d-H2O and given in a volume of 1 ml/kg body weight for intraperitoneal (IP) dosing. Six mice per group are rendered allodynic by injection of one of the following agents: 300 ng/kg sulprostone in DMSO IP, 100 ng/kg phenylephrine (PE) in dH2O IP, or 100 ng NMDA in DMSO intrathecally (IT). Fifteen minutes before administration of the allodynia-inducing agents, the experimental mice are given 1 mg/kg NB-DNJ. Thirty (30) minutes following administration of NB-DNJ, the allodynic response is monitored as described by brushing the flank of each mouse with a paint brush. Five to six mice per group are rendered allodynic by injection of one of the following: 300 ng/kg sulprostone IP, 100 ng/kg phenylephrine (PE) IP, or 100 ng NMDA intrathecally (IT). Fifteen minutes prior to the induction of allodynia, the mice are given D-glucaro-delta-lactam IP at […], or 1 mg/kg. PE or NMDA-treated mice are given 1 mg/kg D-glucaro-delta-lactam IP.
# [3] = system: allodynia induced by N-methyl-D-aspartate (NMDA); test: Mouse NMDA model of allodynia
# Protocol: as §1, with “brush. Six mice per group are given one of the following: given 100 μg/kg NB-DNJ, 300 μg/kg NB-DNJ, 1 mg/kg NB-DNJ, or 3 mg/kg 1-deoxynojirimycin. After 15 minutes the mice are rendered allodynic by injection of 200 ng NMDA in DMSO IT. Starting thirty (30) minutes following administration of NB-DNJ, the allodynic response of each mouse is monitored by brushing the flank of the mouse with a paint brush.” for “brush.”
SMILES,"reversal of the allodynic response ([1]; 1 mg/kg given 15 min before sulprostone 300 ng/kg IP, FIG. 1)",attenuation of the allodynic response (analgesic activity) [1],"reversal of the allodynic response ([2]; 1 mg/kg given 15 min before PE 100 ng/kg IP, FIG. 1)","pain reduction at different doses ([3]; 100 μg/kg, 300 μg/kg, 1 mg/kg, 15 min before 200 ng NMDA IT, FIG. 2)","reversal of the allodynic response ([3]; 1 mg/kg given 15 min before NMDA 100 ng IT, FIG. 1)","analgesic effect ([2]; 1 mg/kg IP, 15 min before PE 100 ng/kg IP, FIG. 4)","analgesic effect ([3]; 1 mg/kg IP, 15 min before NMDA 100 ng IT, FIG. 4)"
"CCCCN1C[C@H](O)[C@@H](O)[C@H](O)[C@H]1CO [NB-DNJ, N-butyl-1-deoxy-nojirimycin]",significant reversal,attenuate the allodynic response,no reversal,dose response,significant reversal,–,–
O=C(O)[C@H]1NC(=O)[C@H](O)[C@@H](O)[C@@H]1O [D-glucaro-delta-lactam],–,attenuate the allodynic response,–,–,–,able to achieve an analgesic effect,able to achieve an analgesic effect

# — patent publication US7884115B2, “Methods and compositions for the treatment of pain and other neurological conditions” (Allergan, Inc., priority 2004, dated 2011)
